We go through one molecule from patent US9669063B2, “Composition for prevention, amelioration or treatment of metabolic syndrome” (MORISHITA JINTAN CO., LTD., priority 2012, dated 2017).

In the experiment the test system is diet-induced obese mice. Description: Test Example 2: diet-induced obese mice on low-calorie feed with RHP, caffeine or their mixture, body weight, calorie intake, epididymal fat. The experiment is classed as in vivo, KK mice. The protocol:
Mice were fed with a high-calorie feed for the preparation of diet-induced obese mice. The calorie intake of the diet-induced obese mice was restricted so as to induce a state of facilitated resolution and utilization of body fat, and then the composition of the present invention containing a rose hip extract and caffeine was given to the mice. In this way, examination was conducted to determine whether the composition could facilitate the resolution and utilization of body fat and thereby ameliorate obesity. Five-week-old male KK mice were fed with water and the powder feed for breeding for three days, and then fed with the high-calorie feed for 3 weeks for the preparation of diet-induced obese mice. The diet-induced obese mice were divided into three groups (six mice per group) and fed with the feed (1) to (3) shown below for 2 weeks. The feeds given to the test groups are as follows. […] After the end of the test, the mice were euthanized, and epididymal fat tissue was harvested and weighed. […] The results are shown as the mean±SD of each group. Diet-induced obese mice were divided into four groups (six mice per group) and fed with the feed (4) to (7) shown below. Other test conditions were the same as in Test Example 1. The results in Table 3 were statistically analyzed by Dunnett's multiple comparison test. The symbol ** indicates a significant difference with a risk less than 1% from the control group.

Regarding `Cn1c(=O)c2c(ncn2C)n(C)c1=O` [caffeine], the “reduction in weight of epididymal fat tissue as compared with the control group” value (0.025 mass % caffeine in low-calorie feed) turned out to be 9.2%. The “statistical significance of fat-reducing effect vs control” value (0.025 mass % caffeine in low-calorie feed, Dunnett's test) is “none of them showed any statistically significant fat-reducing effect”. Moreover, where the note is “low-calorie feed + 0.025 mass % caffeine, 2 weeks, last day of test, mean±SD”, the Body weight turned out to be 35.2 ± 1.8 g. In addition, the Epididymal fat weight (low-calorie feed + 0.025 mass % caffeine, 2 weeks, mean±SD) is 1.60 ± 0.19 g/100 g body weight.
